Source: article PMC10714400, “Antimicrobial Peptide–Peptoid Hybrids with and without Membrane Disruption” (ACS Infectious Diseases, 2023)
Values after ≈ are worked out from the molar mass of the structure shown. Where a SMILES comes first, the peptide text is derived from it. [ ]: non-standard residue; d: D form. Nleu = CC(C)CNCC(=O)O; Nlys = NCCCCNCC(=O)O

Tests used:
K. pneumoniae NCTC418 = system: K. pneumoniae NCTC418
Procedure: (§1) Antimicrobial activity was assayed for all the peptide–peptoids against P. aeruginosa PAO1, K. pneumoniae NCTC418, E. coli W3110, A. baumannii ATCC 19606, methicillin-resistant S. aureus COL (MRSA), and for selected peptides on P. aeruginosa PA14 and the polymyxin-B-resistant derivatives PA14 4.13, PA14 4.18, PA14 2P4, as well as the clinical isolates ZEM-1A and ZEM9A, K. pneumoniae OXA-48, S. aureus Newman, Enterobacter cloacae, Stenotrophomonas maltophilia, Burkholderia cenocepacia, and Staphylococus epidermidis. To determine the Minimal Inhibitory Concentration (MIC), the Broth Microdilution method was used.[72] A colony of bacteria was picked and grown in LB medium overnight at 37 °C.
(§2) To each well was finally added 4 μL of the diluted bacterial suspension (see above), corresponding to approximately 5 × 10^5 CFU. For each test, two columns of the plate were kept for sterility control (medium only), growth control (medium with bacterial inoculum, no compound). The positive control, Polymyxin B (starting with a concentration of 16 μg/mL) in MH medium with bacterial inocula, was introduced in the two lines of the plate. The plates were incubated at 37 °C for ca. 18 h under static conditions. Next, 15 μL of 3-(4,5-dimethylthiazol-2-yl)-2,5-diphenyltetrazolium bromide (MTT)[73] (1 mg/mL in sterilized MilliQ deionized water) were added to each well, and the plates were incubated for 20–30 min at room temperature. The minimal inhibitory concentration (MIC) was defined as the lowest concentration of the compound that inhibits the visible growth of the tested bacteria (yellow) with the unaided eye.

A. baumannii ATCC19606 = system: A. baumannii ATCC19606
Procedure: as §1, §2

S. aureus COL (MRSA) = system: S. aureus COL (MRSA)
Procedure: as §1, §2

P. aeruginosa PAO1 = system: P. aeruginosa PAO1
Procedure: as §1, §2

E. coli W3110 = system: E. coli W3110
Procedure: as §1, §2

PA14 4.13 (phoQ) = conditions: CSV; […] MH at pH 8.5
Procedure: as §1, §2

PA14 4.18 (pmrB) = conditions: CSV; […] MH at pH 8.5
Procedure: as §1, §2

PA14 2P4 (pmrB) = conditions: CSV; […] MH at pH 8.5
Procedure: as §1, §2

P. aeruginosa PA14 = conditions: Table S3; […] MH at pH 8.5, 16-20 hours at 37 °C
Procedure: as §1
as §2, with “The plates were incubated at 37 °C for ca. 18 h under static conditions.” left out

S. aureus Newman = conditions: Table S3; […] MH at pH 8.5
Procedure: as §1
as §2, with “The plates were incubated at 37 °C for ca. 18 h under static conditions.” left out

[1] = Circular dichroism, α-helical content; type: physicochemical; conditions: 0.1 mg/mL; for CD %α with 5 mM DPC: 10 mM phosphate buffer pH 7.4, 5 mM DPC; for CD %α with 20% TFE: 10 mM phosphate buffer pH 7.4, 20% TFE
[2] = Lipid vesicle leakage assay; conditions: 10 mM TRIS, 107 mM NaCl, pH 7.4
Procedure: (c) Vesicle leakage assay for a selection of compounds.
EYPG - EB11 1 EYPC - EB11
Figure S2: Vesicle leakage experiments using 5(6)-carboxyfluorescein induced by peptides. EYPG and EYPC
compound was added after 45 sec. After 240 seconds, 30 µL Triton X-100 1.2% was added for full release of […]

[3] = system: human red blood cells (hRBC); test: Minimum hemolytic concentration (MHC); type: cell-based
Source text: We also measured minimal hemolysis concentrations (MHC) on human red blood cells by serial 2-fold dilution as an indication of toxicity against eukaryotic cells (Table 1).

SMILES: CC(C)C[C@H](NC(=O)CN(CC(C)C)C(=O)[C@H](CCCCN)NC(=O)CNCCCCN)C(=O)N(CCCCN)CC(=O)N[C@@H](CC(C)C)C(=O)N(CC(=O)N[C@@H](CCCCN)C(=O)N(CC(=O)N[C@@H](CC(C)C)C(=O)N(CC(N)=O)CC(C)C)CC(C)C)CC(C)C [EB10, kKlLkLlKlLl] (H-[Nlys]K[Nleu]L[Nlys]L[Nleu]K[Nleu]L[Nleu]-NH2)
- MIC K. pneumoniae NCTC418, full MH at pH 7.4 (K. pneumoniae NCTC418; NCTC418, 4 h, pH 7.4): >32 ug/mL
- MIC K. pneumoniae NCTC418, full MH at pH 8.5 (K. pneumoniae NCTC418; NCTC418, 4 h, pH 8.5): >32 ug/mL
- MIC K. pneumoniae NCTC418 […] 7.4 (K. pneumoniae NCTC418; Table S2, […] MH, pH 7.4): > 32 µg/mL
- MIC K. pneumoniae NCTC418 […] 8.5 (K. pneumoniae NCTC418; Table S2, […] MH, pH 8.5): 32 µg/mL (≈ 24.2 µM)
- MIC K. pneumoniae NCTC418 Full MH 7.4 (K. pneumoniae NCTC418; Table S2, full MH, pH 7.4): > 32 µg/mL
- MIC K. pneumoniae NCTC418 Full MH 8.5 (K. pneumoniae NCTC418; Table S2, full MH, pH 8.5): > 32 µg/mL
- MIC A. baumannii ATCC19606, full MH at pH 7.4 (A. baumannii ATCC19606; ATCC19606, 4 h, pH 7.4): >32 ug/mL
- MIC A. baumannii ATCC19606, full MH at pH 8.5 (A. baumannii ATCC19606; ATCC19606, 4 h, pH 8.5): >32 ug/mL
- MIC A. baumannii ATCC19606 […] 7.4 (A. baumannii ATCC19606; Table S2, […] MH, pH 7.4): 16 µg/mL (≈ 12.1 µM)
- MIC A. baumannii ATCC19606 Full MH 7.4 (A. baumannii ATCC19606; Table S2, full MH, pH 7.4): > 32 µg/mL
- MIC A. baumannii ATCC19606 Full MH 8.5 (A. baumannii ATCC19606; Table S2, full MH, pH 8.5): > 32 µg/mL
- MIC S. aureus COL (MRSA), full MH at pH 7.4 (S. aureus COL (MRSA); COL, 4 h, pH 7.4): >32 ug/mL
- MIC S. aureus COL (MRSA) […] 7.4 (S. aureus COL (MRSA); Table S2, […] MH, pH 7.4): 32 µg/mL (≈ 24.2 µM)
- MIC S. aureus COL (MRSA) […] 8.5 (S. aureus COL (MRSA); Table S2, […] MH, pH 8.5): 8 µg/mL (≈ 6.05 µM)
- MIC S. aureus COL (MRSA) Full MH 7.4 (S. aureus COL (MRSA); Table S2, full MH, pH 7.4): > 32 µg/mL
- MIC S. aureus COL (MRSA) Full MH 8.5 (S. aureus COL (MRSA); Table S2, full MH, pH 8.5): 32 µg/mL (≈ 24.2 µM)
- MIC P. aeruginosa PAO1, full MH at pH 7.4 (P. aeruginosa PAO1; PAO1, 4 h, pH 7.4): >32 ug/mL
- MIC P. aeruginosa PAO1, full MH at pH 8.5 (P. aeruginosa PAO1; PAO1, 4 h, pH 8.5): >32 ug/mL
- MIC P. aeruginosa PAO1 […] 7.4 (P. aeruginosa PAO1; Table S2, […] MH, pH 7.4): 4 µg/mL (≈ 3.03 µM)
- MIC P. aeruginosa PAO1 […] 8.5 (P. aeruginosa PAO1; Table S2, […] MH, pH 8.5): 4 µg/mL (≈ 3.03 µM)
- MIC P. aeruginosa PAO1 Full MH 7.4 (P. aeruginosa PAO1; Table S2, full MH, pH 7.4): > 32 µg/mL
- MIC P. aeruginosa PAO1 Full MH 8.5 (P. aeruginosa PAO1; Table S2, full MH, pH 8.5): > 32 µg/mL
- MIC E. coli W3110, […] MH at pH 8.5 (E. coli W3110; CSV, […] MH at pH 8.5): 3 ug/mL
- MIC E. coli W3110, full MH at pH 7.4 (E. coli W3110; CSV, full MH at pH 7.4): >32 ug/mL
- MIC E. coli W3110 […] 7.4 (E. coli W3110; Table S2, […] MH, pH 7.4): 2 µg/mL (≈ 1.51 µM)
- MIC E. coli W3110 […] 8.5 (E. coli W3110; Table S2, […] MH, pH 8.5): 2 to 4 µg/mL
- MIC E. coli W3110 Full MH 7.4 (E. coli W3110; Table S2, full MH, pH 7.4): > 32 µg/mL
- MIC E. coli W3110 Full MH 8.5 (E. coli W3110; Table S2, full MH, pH 8.5): 32 µg/mL (≈ 24.2 µM)
- MIC E. coli W3110 […] (E. coli W3110; diluted MH ([…] MH, pH 8.5) per Table 1 footnote b, 16–20 h at 37 °C): 2 to 4 µg/mL
- MIC P. aeruginosa PA14 4.13, […] MH at pH 8.5 (PA14 4.13 (phoQ)): 4 ug/mL
- MIC P. aeruginosa PA14 4.18, […] MH at pH 8.5 (PA14 4.18 (pmrB)): 8 ug/mL
- MIC P. aeruginosa PA14 2P4, […] MH at pH 8.5 (PA14 2P4 (pmrB)): 8 ug/mL
- MIC P. aeruginosa PA14 (P. aeruginosa PA14): 4 µg/mL (≈ 3.03 µM)
- MIC S. aureus Newman (S. aureus Newman): 8 µg/mL (≈ 6.05 µM)
- CD %α with 5 mM DPC ([1]; DichroWeb, Contin-LL): 11/11%
- CD %α with 20% TFE ([1]; DichroWeb, Contin-LL): 11/11%
- CD %α with 5 mM DPC ([1]; Table S2): 11%
- CD %α with 20% TFE ([1]; Table S2): 11%
- Vesicle leakage activity on EYPC vesicles ([2]; egg yolk phosphatidyl choline vesicles): no activity
- Vesicle leakage activity on EYPG vesicles ([2]; fluorescein-loaded anionic EYPG vesicles): weak or no vesicle leakage activity
- Hemolysis [3]: none of them showed any measurable hemolysis
- MHC [3]: >2000 µg/mL
